Activity calls are given as the source filed them.
Tests used:
[1] = tested on: H4; assay: Luminescence Cell-Based Dose Response HTS to Identify Activators of 5'UTR Stem-Loop Driven Prion Protein mRNA Translation in H4 Neuroglioblastoma Cells. [Related pubchem assays: 1829 (Project Summary), 1814 (Primary HTS)]; assay type: functional; details: Homo sapiens
[2] = biological target: Protein-tyrosine kinase 2-beta (Homo sapiens, UniProt Q14289);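 also: potency of inhibitors of PYK2 kinase phosphorylation of poly-GT substrate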
[3] = biological target: T1, Heat shock 70 kDa protein 1A (Homo sapiens, UniProt P0DMV8); assay: small-molecule inhibition of Hsp70 – biochemical, TR-FRET (AID 786)
T1 sequence (P0DMV8 whole entry): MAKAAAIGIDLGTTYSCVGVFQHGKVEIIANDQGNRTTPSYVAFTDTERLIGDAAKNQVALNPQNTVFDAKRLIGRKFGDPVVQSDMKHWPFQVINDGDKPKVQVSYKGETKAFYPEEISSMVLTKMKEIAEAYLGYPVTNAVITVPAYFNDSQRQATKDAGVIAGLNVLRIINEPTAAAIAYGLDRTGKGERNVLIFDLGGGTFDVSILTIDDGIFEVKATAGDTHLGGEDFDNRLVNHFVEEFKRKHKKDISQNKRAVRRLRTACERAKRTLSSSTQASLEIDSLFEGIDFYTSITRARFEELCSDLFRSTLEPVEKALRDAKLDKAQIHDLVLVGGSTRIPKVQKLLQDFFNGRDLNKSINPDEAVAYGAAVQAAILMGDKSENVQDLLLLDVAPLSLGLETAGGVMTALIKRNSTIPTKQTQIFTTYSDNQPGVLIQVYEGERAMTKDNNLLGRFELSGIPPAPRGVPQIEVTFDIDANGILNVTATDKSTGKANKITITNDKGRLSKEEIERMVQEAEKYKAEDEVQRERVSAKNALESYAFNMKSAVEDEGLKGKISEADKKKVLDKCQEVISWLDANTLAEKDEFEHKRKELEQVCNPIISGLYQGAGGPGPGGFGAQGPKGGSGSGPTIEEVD

[4] = Luminescence Cell-Based Dose Response HTS to Identify Activators of Luciferase Translation or Activity in H4 […] Cells. [Related pubchem assays: 1829 (Project Summary), 1814 (Primary HTS)]; assay type: functional
[5] = Luminescence Cell-Based Dose Confirmation HTS to Identify Activators of 5'UTR Stem-Loop Driven Alpha-Synuclein mRNA Translation in H4 Neuroglioblastoma Cells. [Related pubchem assays: 1829 (Project Summary), 1814 (Primary HTS)]; assay type: functional
[6] = viability of PTEN-deleted HCT116 cells – cell-based, HCT116 PTEN knockout, dose response (AID 1047); assay type: functional;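 also: HCT116 colon tumor cells with PTEN knocked out; cells exposed to compound for 60 hours before readout; potency for loss of cell viability measured by luminescence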
[7] = biological target: T1, Heat shock 70 kDa protein 1A; assay: small molecules displacing fluorescent ligand from Hsp70 – biochemical, fluorescence polarization, primary screen (AID 583)
[8] = viability of HCT116 lacking mutant beta-catenin – cell-based, human colon tumor, dose response (AID 1045); assay type: functional;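 also: HCT116 colon tumor cells with beta catenin knocked out; cells exposed to compound for 60 hours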
[9] = biological target: T2, X-box-binding protein 1 (Homo sapiens, UniProt P17861); assay type: functional, Cricetulus griseus;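 also: confirmatory dose-response counter-screen serving a CHOP assay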
T2 sequence (P17861 whole entry): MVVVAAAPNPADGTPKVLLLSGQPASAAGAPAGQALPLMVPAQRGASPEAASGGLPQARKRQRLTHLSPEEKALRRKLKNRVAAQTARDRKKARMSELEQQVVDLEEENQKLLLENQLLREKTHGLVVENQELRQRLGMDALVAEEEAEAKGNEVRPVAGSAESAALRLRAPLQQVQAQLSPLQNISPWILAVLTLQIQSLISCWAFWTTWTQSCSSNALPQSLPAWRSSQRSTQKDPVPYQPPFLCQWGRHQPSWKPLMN

[10] = Cytotoxicity screening for potential Inhibitors of Bacterial Capsule Biogenesis. [Related pubchem assays (depositor defined):AID488970]; assay type: functional
[11] = tested on: Vero; assay: host cell viability loss, Vero E6 – synthesized analogs, cytotoxicity control for West Nile virus antiviral project, SAR follow-up (AID 2244); assay type: functional; details: Chlorocebus sabaeus
[12] = biological target: Protein Rev (Human immunodeficiency virus type 1 group M subtype B (isolate HXB2)(HIV-1), UniProt P04618); assay: blockers of HIV Rev/RRE RNA complex – biochemical, fluorescence polarization, HIV-1, dose response (AID 434976); set-up: species or system Human immunodeficiency virus 1
Chain of Protein Rev (P04618 whole entry): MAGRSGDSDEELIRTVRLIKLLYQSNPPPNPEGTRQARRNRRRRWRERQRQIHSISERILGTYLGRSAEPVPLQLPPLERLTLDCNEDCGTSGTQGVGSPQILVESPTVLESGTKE

[13] = biological target: Female germline-specific tumor suppressor gld-1 (Caenorhabditis elegans, UniProt Q17339); assay: blockers of GLD-1/TGE RNA complex formation – biochemical, fluorescence polarization, C. elegans, dose response (AID 2802);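 also: fluorescence polarization of labeled TGE RNA bound by purified gld-1 protein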
Chain of Female germline-specific tumor suppressor gld-1 (Q17339 whole entry): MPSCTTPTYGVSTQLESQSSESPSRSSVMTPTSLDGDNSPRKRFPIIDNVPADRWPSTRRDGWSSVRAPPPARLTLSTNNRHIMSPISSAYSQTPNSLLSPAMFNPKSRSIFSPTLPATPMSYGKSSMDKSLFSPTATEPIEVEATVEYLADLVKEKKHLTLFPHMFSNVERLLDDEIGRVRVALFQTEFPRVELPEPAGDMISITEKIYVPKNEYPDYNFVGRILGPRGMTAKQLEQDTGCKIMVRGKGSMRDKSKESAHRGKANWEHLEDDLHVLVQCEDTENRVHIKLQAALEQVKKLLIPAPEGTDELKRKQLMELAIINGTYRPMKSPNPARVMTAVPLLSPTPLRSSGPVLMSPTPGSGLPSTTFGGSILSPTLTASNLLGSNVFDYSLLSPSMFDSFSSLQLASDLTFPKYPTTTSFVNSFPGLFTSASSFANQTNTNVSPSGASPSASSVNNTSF

[14] = biological target: Signal transducer and activator of transcription 3 (Homo sapiens, UniProt P40763); assay: STAT3 activation with BCL3 mRNA and toxicity – cell-based, […], BCL3 qPCR, cytotoxicity, late-stage follow-up, panel member STAT3 Activation (AID 2049)
Chain of Signal transducer and activator of transcription 3 (P40763 whole entry): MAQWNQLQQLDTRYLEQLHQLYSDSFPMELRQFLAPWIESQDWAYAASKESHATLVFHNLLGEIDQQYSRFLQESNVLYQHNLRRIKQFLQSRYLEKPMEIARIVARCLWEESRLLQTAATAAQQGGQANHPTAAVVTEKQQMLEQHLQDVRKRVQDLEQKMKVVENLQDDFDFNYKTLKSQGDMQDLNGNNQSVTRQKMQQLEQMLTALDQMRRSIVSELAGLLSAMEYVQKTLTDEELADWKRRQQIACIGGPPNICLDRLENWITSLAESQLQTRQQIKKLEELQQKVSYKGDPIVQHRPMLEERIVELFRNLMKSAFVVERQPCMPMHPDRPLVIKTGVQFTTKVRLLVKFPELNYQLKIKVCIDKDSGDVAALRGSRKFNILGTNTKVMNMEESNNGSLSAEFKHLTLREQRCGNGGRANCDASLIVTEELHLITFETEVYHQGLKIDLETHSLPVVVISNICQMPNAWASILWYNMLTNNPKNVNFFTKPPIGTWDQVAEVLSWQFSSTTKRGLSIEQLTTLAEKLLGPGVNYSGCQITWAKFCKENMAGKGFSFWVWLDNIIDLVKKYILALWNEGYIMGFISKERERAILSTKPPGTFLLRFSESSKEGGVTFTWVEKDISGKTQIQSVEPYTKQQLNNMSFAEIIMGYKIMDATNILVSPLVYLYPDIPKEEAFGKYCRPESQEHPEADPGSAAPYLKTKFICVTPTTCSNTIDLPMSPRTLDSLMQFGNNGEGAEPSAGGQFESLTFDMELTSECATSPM

[15] = biological target: Cyclin-dependent kinase 5/CDK5 activator 1 (Homo sapiens, UniProt Q00535); assay: blockade of human CDK5 activity – biochemical, cherry-picked samples, set 2, dose response (AID 504545)
[16] = biological target: G-protein coupled receptor 35 (Homo sapiens, UniProt Q9HC97); assay: inhibition of zaprinast-stimulated GPR35 beta-arrestin translocation – imaging, U2OS, beta-arrestin-GFP, zaprinast agonist, primary screen (AID 2058); assay type: functional;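 also: antagonist potency meaning inhibition of agonist-induced arrestin redistribution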
Chain of G-protein coupled receptor 35 (Q9HC97 whole entry): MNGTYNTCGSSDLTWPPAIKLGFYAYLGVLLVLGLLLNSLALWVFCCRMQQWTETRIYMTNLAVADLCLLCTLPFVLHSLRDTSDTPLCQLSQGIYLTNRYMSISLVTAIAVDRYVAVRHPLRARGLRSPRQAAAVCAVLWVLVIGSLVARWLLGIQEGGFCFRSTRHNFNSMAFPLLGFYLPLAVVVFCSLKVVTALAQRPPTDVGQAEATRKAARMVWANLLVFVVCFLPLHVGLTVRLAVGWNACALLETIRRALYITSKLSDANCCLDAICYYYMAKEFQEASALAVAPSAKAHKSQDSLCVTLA

[17] = biological target: Luciferin 4-monooxygenase (Photinus pyralis, UniProt P08659); assay: In vitro luciferase assay using purified luciferase. [Related pubchem assays: 1299, 1270, 1295, 1375, 1287, 1281, 1293, 1291, 1289, 1280, 465, 1364, 1282, 1372, 1365, 1370, 1367, 1366, 1266, 1373, 1292, 1290, 1302, 1371, 1283, 1271, 1294, 1374, 1368, 1369 ]
Chain of Luciferin 4-monooxygenase (P08659 whole entry): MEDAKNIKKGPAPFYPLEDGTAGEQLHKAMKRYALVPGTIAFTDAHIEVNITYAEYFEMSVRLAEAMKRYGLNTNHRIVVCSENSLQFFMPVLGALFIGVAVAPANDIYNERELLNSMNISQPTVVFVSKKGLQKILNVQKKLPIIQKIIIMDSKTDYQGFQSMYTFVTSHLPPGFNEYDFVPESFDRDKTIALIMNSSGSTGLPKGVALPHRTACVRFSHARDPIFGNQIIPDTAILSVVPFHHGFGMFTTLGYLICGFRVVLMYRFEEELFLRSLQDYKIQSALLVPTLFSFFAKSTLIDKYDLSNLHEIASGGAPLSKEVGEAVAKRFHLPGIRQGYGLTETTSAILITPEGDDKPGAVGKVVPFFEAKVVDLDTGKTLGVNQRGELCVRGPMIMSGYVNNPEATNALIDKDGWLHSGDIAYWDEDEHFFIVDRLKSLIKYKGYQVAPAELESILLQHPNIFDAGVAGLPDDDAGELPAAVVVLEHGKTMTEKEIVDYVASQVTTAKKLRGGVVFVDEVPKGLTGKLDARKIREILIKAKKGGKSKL

[18] = tested on: HEK293; assay: Cytotoxicity assay in HEK293 cells. [Related pubchem assays (depositor defined):AID1266, AID1269, AID1270, AID1271, AID1280, AID1281, AID1282, AID1283, AID1287, AID1289, AID1290, AID1291, AID1292, AID1293, AID1294, AID1295, AID1299, AID1302, AID1364, AID1365, AID1366, AID1367, AID1369, AID1370, AID1371, AID1372, AID1373, AID1374, AID1375, AID1384 …; assay type: functional, cell-based; details: Homo sapiens
[19] = tested on: HEK293; assay: PMA/Ionomycin induced NF-kB luciferase assay in 293- NF-kB-Luc stable cells. [Related pubchem assays: 1299, 1270, 1295, 1375, 1287, 1281, 1293, 1291, 1289, 1280, 465, 1364, 1282, 1372, 1365, 1370, 1367, 1366, 1269, 1373, 1292, 1290, 1302, 1371, 1283, 1271, 1294, 1374, 1368, 1369 ]; assay type: functional, cell-based; details: Homo sapiens
[20] = biological target: T3, Alkaline phosphatase, tissue-nonspecific isozyme (Homo sapiens, UniProt P05186); assay: potency against alkaline phosphatase TNAP – biochemical, luminescent, dose response, SAR follow-up (AID 1056)
T3 sequence (P05186 whole entry): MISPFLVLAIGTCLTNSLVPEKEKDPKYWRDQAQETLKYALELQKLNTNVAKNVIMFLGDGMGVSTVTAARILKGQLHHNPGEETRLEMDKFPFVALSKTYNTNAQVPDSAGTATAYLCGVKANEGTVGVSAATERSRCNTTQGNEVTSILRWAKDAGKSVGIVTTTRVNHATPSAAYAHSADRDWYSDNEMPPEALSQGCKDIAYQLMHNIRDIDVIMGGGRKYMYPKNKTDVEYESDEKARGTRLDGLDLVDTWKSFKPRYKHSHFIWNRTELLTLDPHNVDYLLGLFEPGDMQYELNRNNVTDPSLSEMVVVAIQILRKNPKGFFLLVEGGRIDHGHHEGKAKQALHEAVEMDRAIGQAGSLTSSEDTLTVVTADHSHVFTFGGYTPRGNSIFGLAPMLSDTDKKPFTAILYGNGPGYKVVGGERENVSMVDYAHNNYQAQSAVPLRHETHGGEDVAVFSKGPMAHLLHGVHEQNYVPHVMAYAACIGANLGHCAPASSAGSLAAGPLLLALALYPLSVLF

[21] = biological target: T3, Alkaline phosphatase, tissue-nonspecific isozyme; assay: SAR assay for compounds inhibiting TNAP in the absence of phosphate acceptor performed in a luminescent assay. [Related pubchem assays (depositor defined):AID1548, AID1659, AID518]
[22] = biological target: Glyceraldehyde-3-phosphate dehydrogenase (Homo sapiens, UniProt P04406)
[23] = biological target: T4, Nucleotide-binding oligomerization domain-containing protein 1 (Homo sapiens, UniProt Q9Y239); assay: blockers of NOD1 pathway activity – revised, SAR follow-up (AID 2333); assay type: functional
T4 sequence (Q9Y239 whole entry): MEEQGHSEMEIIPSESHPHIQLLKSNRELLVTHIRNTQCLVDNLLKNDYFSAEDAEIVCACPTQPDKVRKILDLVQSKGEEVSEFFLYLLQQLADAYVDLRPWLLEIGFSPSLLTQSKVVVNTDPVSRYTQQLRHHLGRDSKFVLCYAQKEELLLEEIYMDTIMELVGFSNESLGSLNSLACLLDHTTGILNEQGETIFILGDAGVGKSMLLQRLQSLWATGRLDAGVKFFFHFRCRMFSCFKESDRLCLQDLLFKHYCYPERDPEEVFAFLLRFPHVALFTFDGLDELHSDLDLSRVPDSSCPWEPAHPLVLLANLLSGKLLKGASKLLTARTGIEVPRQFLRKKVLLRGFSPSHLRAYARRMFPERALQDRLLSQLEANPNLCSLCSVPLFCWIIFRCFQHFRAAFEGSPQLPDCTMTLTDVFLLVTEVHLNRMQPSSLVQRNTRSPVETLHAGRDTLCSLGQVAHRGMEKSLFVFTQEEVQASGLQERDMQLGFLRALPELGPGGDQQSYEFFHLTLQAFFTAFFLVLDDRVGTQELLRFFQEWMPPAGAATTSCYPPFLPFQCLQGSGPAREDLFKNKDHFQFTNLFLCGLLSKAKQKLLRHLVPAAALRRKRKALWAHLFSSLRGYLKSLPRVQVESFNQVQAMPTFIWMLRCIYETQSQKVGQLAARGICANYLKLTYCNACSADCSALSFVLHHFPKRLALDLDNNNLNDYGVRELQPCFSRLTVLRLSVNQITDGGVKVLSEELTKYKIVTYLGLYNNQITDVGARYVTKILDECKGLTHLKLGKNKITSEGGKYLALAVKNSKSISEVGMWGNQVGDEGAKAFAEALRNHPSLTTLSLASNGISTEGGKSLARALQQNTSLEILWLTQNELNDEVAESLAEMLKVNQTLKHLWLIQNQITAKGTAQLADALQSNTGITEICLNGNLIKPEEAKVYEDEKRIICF

[24] = biological target: Tumor necrosis factor (Homo sapiens, UniProt P01375); assay: analog potency on TNFa NF-kB signaling – cell-based, revised, SAR follow-up (AID 2337); assay type: functional
Chain of Tumor necrosis factor (P01375 whole entry): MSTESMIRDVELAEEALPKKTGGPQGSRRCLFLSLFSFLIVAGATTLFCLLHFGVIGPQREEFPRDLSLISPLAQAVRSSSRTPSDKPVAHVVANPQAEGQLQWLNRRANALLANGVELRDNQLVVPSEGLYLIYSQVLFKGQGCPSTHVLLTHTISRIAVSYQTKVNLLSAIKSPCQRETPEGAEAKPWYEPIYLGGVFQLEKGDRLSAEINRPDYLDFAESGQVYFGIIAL

[25] = tested on: HEK293; assay: cells; details: Homo sapiens
[26] = biological target: Nucleotide-binding oligomerization domain-containing protein 2 (Homo sapiens, UniProt Q9HC29); assay: PubChem AID 2334; assay type: functional
Chain of Nucleotide-binding oligomerization domain-containing protein 2 (Q9HC29 whole entry, the tested form may be a part): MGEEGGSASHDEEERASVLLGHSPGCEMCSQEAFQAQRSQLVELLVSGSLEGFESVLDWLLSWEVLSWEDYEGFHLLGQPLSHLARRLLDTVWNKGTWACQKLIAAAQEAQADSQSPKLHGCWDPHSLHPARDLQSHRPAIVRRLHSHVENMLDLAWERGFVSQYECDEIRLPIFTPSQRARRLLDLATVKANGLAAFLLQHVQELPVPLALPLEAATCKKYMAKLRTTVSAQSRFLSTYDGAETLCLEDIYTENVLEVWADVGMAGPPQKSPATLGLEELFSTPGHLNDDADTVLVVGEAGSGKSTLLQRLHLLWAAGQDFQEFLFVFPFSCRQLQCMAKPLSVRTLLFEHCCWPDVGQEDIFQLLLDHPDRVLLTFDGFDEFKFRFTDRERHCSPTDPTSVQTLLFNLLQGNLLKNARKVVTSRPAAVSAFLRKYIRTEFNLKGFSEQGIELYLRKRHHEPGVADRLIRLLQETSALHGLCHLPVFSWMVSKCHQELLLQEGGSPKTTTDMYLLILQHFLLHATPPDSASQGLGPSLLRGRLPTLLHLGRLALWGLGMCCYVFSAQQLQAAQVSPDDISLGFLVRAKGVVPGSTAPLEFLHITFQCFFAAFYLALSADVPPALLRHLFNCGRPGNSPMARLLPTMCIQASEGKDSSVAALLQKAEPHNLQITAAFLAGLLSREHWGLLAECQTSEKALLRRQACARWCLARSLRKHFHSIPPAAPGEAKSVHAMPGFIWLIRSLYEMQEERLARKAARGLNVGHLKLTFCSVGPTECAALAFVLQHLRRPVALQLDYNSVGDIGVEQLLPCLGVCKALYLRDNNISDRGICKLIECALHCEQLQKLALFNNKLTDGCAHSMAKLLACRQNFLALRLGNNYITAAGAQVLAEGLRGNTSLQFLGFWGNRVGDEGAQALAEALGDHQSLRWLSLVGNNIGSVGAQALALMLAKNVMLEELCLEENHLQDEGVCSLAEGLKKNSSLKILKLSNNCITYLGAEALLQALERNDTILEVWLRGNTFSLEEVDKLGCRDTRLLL

[27] = biological target: Interleukin-8 (Homo sapiens, UniProt P10145); assay: SAR analysis of tumor necrosis factor alpha (TNF-alpha) induced IL-8 secretion in MCF-7/NOD1 cells. [Related pubchem assays (depositor defined):AID1575, AID2250, AID2260]; assay type: functional, cell-based
Chain of Interleukin-8 (P10145 whole entry): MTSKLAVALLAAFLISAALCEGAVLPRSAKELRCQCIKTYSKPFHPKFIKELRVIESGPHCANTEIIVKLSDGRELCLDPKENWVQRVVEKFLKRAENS

[28] = tested on: Staphylococcus aureus; assay: Inhibitors of Bacterial Quorum Sensing Structure Activity Relationship (SAR) Analysis: Dose Response Assay. [Related pubchem assays: 700, 527 ]; assay type: functional, organism-based
[29] = biological target: T5, Cysteine protease ATG4B (Homo sapiens, UniProt Q9Y4P1); assay type: functional;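 also: Fluorescence-based dose-response confirmation assay measuring inhibition of ATG4B activity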
T5 sequence (Q9Y4P1 whole entry): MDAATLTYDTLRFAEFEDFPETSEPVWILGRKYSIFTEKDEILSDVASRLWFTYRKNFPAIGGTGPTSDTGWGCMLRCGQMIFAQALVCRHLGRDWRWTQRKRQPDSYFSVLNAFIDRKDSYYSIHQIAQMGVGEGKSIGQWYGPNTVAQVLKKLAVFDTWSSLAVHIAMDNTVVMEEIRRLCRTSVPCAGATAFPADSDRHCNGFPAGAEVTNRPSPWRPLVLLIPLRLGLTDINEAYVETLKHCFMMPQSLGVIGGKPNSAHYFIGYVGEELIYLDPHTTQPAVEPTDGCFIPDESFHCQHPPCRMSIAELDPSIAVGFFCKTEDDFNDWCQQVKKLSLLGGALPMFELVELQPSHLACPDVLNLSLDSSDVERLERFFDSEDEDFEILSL

[30] = biological target: Cytochrome P450 3A4 (Homo sapiens, UniProt P08684);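 also: CYP3A4 tested as one member of a cytochrome P450 panel screen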
[31] = biological target: Phospholipase A2 (Homo sapiens, UniProt P04054); assay type: functional;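 also: confirmatory dose-response counterscreen on phospholipase A2, testing hits that came from an ultra-high-throughput screen for ATG4B inhibitors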
Chain of Phospholipase A2 (P04054 whole entry): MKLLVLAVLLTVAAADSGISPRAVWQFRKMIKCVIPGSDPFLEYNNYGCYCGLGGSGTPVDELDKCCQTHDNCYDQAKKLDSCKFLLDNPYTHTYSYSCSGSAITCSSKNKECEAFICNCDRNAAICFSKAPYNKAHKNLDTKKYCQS

[32] = biological target: Cytochrome P450 2C19 (Homo sapiens, UniProt P33261); assay: Cytochrome panel assay with activity outcomes. Panel member name: p450-cyp2c19 Compounds with AC50 equal or less than 10 uM are considered active; assay type: functional; details: read-out: AC50
Chain of Cytochrome P450 2C19 (P33261 whole entry): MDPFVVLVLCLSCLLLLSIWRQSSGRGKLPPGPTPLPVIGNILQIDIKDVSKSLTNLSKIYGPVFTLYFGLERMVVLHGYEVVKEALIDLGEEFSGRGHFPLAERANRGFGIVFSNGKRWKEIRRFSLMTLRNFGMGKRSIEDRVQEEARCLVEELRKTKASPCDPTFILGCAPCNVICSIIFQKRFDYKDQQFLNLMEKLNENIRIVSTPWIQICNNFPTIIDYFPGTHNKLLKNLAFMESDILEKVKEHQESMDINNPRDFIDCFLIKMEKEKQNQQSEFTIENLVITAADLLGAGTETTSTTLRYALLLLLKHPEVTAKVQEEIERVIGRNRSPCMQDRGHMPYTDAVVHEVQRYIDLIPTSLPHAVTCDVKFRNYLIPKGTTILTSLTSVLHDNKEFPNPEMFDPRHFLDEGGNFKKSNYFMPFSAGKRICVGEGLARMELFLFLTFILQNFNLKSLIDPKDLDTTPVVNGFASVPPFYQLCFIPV

## O=C(ONc1ccc(N=NC(=O)c2ccccc2O)cc1)c1ccccc1
[1]
  EC50: 28.8 µM (active)
[2]
  IC50: 5.49 µM (active)
[3]
  IC50: > 100 µM (not active)
[4]
  EC50: 10.1 µM (active)
[5]
  EC50: > 120 µM (not active)
[6]
  EC50: 20 µM (active)
[7]
  IC50: 11.7 µM (active)
[8]
  EC50: 21.1 µM (active)
[9]
  Absolute IC50 (XBP1): 10 µM
[10]
  CC50: 45.1 µM (active)

## COc1ccc(-c2csc(NC(=O)c3ccccc3F)n2)cc1
[11]
  CC50: > 40 µM (active)

## COc1ccc(/C=C(\CC(=O)O)c2nc3ccccc3s2)cc1O
[12]
  IC50: > 75.4 µM (not active)
[13]
  IC50: 2.43 µM (active)

## Nc1c(C(=O)Nc2ccccc2)noc1C(=O)c1ccccc1
[14]
  EC50: > 55.7 µM (inactive)

## CC(C)n1cnc2c(Nc3cccc(F)c3)nc(NCCO)nc21
[15]
  AC50: 5.86 µM (active)

## COc1ccc(/C=C\C(=O)NCC(=O)N/N=C/c2ccc(O)cc2O)cc1
[16]
  IC50: 1.16 µM (active)

## COc1ccc(CNC(=O)c2ccc([N+](=O)[O-])o2)cc1
[17]
  EC50: > 8 µM (not active)
[18]
  EC50: > 8 µM (inactive)
[19]
  EC50: 4.24 µM (not active)

## O=C(NCCO)c1cc(-c2ccc(Cl)c(Cl)c2Cl)n[nH]1
[20]
  IC50: 0.00744 µM (active)
[21]
  IC50: 0.00422 µM (active)
[22]
  IC50: > 10 µM (inconclusive)

## O=C(O)c1c(NC(=O)N2CCOCC2)sc2c1CCCC2
[23]
  IC50: 1.47 µM (active)
[24]
  IC50: > 20 µM (inactive)
[25]
  IC50: > 20 µM (inactive)
[26]
  IC50: > 20 µM (inactive)
[27]
  IC50: > 25 µM (inactive)

## Cc1c(Cl)cccc1Nc1ccccc1C(=O)O [TOLFENAMIC ACID]
[28]
  IC50: 0.459 µM (active)
[29]
  IC50: 8.17 µM (active)
[30]
  AC50: inconclusive
[31]
  IC50: 7.74 µM (active)
[32]
  AC50: 15.8 µM (inconclusive)
